Source: patent US7074789B2, “Kinase inhibitors” (Amgen Inc., priority 1999, dated 2006)
Like-named read-outs stand apart in the source and are kept apart here.

How the values were obtained:
Assay type in all cases: biochemical
Lck = target: T1, Lck (Homo sapiens, UniProt P06239); assay: Kinase inhibition assay (33P transfer), Lck; conditions: read-out: Lck-1
T1 construct: Kinases are expressed as either kinase domains or full length constructs; made in house
Outline: (§1)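 33P-ATP transfer to coated synthetic polymer substrates; acid wash (0.5% H3PO4), scintillant, liquid scintillation count. Enzymes: His- or GST-fusion kinases from E. coli or High Five insect cells.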

Zap-70 = target: T2, Zap-70 (Homo sapiens, UniProt P43403); assay: Kinase inhibition assay (33P transfer), Zap-70; conditions: read-out: Zap-1
T2 construct: Kinases are expressed as either kinase domains or full length constructs; made in house
T2 sequence (P43403 1-619): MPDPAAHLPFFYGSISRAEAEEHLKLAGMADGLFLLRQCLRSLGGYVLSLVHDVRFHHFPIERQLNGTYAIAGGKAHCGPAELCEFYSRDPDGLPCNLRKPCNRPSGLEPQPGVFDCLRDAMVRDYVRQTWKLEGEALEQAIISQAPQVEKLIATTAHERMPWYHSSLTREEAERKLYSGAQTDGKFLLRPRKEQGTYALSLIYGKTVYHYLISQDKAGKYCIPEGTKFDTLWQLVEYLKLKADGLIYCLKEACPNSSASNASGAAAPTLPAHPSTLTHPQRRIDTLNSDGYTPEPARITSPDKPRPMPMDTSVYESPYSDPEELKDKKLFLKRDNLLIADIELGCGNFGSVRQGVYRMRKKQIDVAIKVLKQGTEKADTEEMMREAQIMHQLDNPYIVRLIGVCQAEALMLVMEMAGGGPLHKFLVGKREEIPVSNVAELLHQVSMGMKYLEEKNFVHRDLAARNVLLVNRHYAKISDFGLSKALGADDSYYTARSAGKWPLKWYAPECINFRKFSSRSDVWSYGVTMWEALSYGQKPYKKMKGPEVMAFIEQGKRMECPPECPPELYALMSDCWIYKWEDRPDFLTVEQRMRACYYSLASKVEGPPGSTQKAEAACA
Outline: as §1

Itk = target: T3, Itk (Homo sapiens, UniProt Q08881); assay: Kinase inhibition assay (33P transfer), Itk; conditions: read-out: Itk-1
T3 construct: Kinases are expressed as either kinase domains or full length constructs; made in house
T3 sequence (Q08881 1-620): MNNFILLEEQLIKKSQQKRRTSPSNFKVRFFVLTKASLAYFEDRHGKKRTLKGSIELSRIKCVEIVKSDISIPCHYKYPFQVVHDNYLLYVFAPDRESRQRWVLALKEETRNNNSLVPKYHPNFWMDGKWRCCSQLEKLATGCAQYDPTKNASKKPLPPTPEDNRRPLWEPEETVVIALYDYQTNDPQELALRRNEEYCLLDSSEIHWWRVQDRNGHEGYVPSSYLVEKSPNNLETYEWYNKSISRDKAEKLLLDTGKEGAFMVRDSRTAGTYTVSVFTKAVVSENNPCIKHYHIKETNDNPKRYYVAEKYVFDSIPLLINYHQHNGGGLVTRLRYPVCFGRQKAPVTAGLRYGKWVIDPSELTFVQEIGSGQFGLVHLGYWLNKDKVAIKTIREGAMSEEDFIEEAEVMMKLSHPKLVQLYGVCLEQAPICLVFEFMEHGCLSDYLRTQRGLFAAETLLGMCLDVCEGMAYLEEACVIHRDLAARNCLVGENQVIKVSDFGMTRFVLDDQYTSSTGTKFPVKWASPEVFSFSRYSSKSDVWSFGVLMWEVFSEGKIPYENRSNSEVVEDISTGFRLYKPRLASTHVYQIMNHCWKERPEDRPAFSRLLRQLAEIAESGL
Outline: (§2)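 Kinase domains or full-length enzymes, GST- or polyHis-tagged, were expressed in E. coli or baculovirus High Five cells and affinity-purified. Transfer of 33PO4 from ATP onto plate-bound poly(Glu,Tyr) 4:1 or poly(Arg,Ser) 3:1 was counted by liquid scintillation after a 0.5% phosphoric acid wash. IC50 = concentration halving incorporation.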

EGFR = target: T4, EGFR (Homo sapiens, UniProt P00533); assay: Kinase inhibition assay (33P transfer), EGFR; conditions: Table 2, kinase inhibition class; read-out: EGFR-1
T4 construct: Kinases are expressed as either kinase domains or full length constructs; made in house
Outline: as §2

Kdr = target: T5, Kdr (Homo sapiens, UniProt P35968); assay: Kinase inhibition assay (33P transfer), Kdr; conditions: read-out: KDR-1
T5 construct: Kinases are expressed as either kinase domains or full length constructs; made in house
Outline: as §1

Tek = target: T6, Tek (Homo sapiens, UniProt Q02763); assay: Kinase inhibition assay (33P transfer), Tek; conditions: read-out: Tek-1
T6 construct: Kinases are expressed as either kinase domains or full length constructs; made in house
Text: The inhibitor compounds described herein are screened in the following manner. Kinases suitable for use in the following protocol to determine kinase activity of the compounds described herein include, -but are not limited to: Lck, Lyn, Src, Fyn, Syk, Zap-70, Itk, Tec, Btk, EGFR, ErbB2, Kdr, Flt-1, Flt-3, Tek, c-Met, InsR, and AKT.
Kinases are expressed as either kinase domains or full length constructs fused to glutathione S-transferase (GST) or polyHistidine tagged fusion proteins in either E. colior Baculovirus-High Five expression systems. They are purified to near homogeneity by affinity chromatography essentially as previously described (Lehr et al., 1996; Gish et al., 1995). In some instances, kinases are co-expressed or mixed with purified or partially purified regulatory polypeptides prior to measurement of activity.
Kinase activity and inhibition are measured essentially by established protocols (Braunwalder et al., 1996). Briefly, The transfer of ^33PO4 from ATP to the synthetic substrates poly(Glu, Tyr) 4:1 or poly(Arg, Ser) 3:1 attached to the bioactive surface of microtiter plates serves as the basis to evaluate enzyme activity. After an incubation period, the amount of phosphate transferred is measured by first washing the plate with 0.5% phosphoric acid, adding liquid scintillant, and then counting in a liquid scintillation detector. The IC50 is determined by the concentration of compound that causes a 50% reduction in the amount of […] incorporated onto the substrate bound to the plate.

c-Met = target: T7, c-Met (Homo sapiens, UniProt P08581); assay: Kinase inhibition assay (33P transfer), c-Met; conditions: Table 2, kinase inhibition class; read-out: Met-1
T7 construct: Kinases are expressed as either kinase domains or full length constructs; made in house
Outline: as §2

AKT = target: T8, AKT (Homo sapiens, UniProt Q9Y243); assay: Kinase inhibition assay (33P transfer), AKT; conditions: Table 2, kinase inhibition class; read-out: AKT3-1
T8 construct: Kinases are expressed as either kinase domains or full length constructs; made in house
Outline: as §1

T8 sequence (Q9Y243 whole entry, the tested form may be a part): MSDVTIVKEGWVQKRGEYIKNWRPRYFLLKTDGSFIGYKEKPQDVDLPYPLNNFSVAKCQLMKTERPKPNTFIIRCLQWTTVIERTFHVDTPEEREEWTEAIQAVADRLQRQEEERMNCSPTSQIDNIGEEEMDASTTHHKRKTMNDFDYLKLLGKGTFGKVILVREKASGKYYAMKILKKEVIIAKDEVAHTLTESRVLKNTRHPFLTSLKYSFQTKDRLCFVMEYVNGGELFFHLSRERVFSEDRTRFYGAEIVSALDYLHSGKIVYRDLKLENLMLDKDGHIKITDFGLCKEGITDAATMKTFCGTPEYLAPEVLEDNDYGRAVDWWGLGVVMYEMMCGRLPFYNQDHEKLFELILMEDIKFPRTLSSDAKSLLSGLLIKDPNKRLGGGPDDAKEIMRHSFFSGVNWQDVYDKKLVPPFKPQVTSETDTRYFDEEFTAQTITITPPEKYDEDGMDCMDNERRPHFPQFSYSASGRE
T5 sequence (P35968 20-1356, species assumed): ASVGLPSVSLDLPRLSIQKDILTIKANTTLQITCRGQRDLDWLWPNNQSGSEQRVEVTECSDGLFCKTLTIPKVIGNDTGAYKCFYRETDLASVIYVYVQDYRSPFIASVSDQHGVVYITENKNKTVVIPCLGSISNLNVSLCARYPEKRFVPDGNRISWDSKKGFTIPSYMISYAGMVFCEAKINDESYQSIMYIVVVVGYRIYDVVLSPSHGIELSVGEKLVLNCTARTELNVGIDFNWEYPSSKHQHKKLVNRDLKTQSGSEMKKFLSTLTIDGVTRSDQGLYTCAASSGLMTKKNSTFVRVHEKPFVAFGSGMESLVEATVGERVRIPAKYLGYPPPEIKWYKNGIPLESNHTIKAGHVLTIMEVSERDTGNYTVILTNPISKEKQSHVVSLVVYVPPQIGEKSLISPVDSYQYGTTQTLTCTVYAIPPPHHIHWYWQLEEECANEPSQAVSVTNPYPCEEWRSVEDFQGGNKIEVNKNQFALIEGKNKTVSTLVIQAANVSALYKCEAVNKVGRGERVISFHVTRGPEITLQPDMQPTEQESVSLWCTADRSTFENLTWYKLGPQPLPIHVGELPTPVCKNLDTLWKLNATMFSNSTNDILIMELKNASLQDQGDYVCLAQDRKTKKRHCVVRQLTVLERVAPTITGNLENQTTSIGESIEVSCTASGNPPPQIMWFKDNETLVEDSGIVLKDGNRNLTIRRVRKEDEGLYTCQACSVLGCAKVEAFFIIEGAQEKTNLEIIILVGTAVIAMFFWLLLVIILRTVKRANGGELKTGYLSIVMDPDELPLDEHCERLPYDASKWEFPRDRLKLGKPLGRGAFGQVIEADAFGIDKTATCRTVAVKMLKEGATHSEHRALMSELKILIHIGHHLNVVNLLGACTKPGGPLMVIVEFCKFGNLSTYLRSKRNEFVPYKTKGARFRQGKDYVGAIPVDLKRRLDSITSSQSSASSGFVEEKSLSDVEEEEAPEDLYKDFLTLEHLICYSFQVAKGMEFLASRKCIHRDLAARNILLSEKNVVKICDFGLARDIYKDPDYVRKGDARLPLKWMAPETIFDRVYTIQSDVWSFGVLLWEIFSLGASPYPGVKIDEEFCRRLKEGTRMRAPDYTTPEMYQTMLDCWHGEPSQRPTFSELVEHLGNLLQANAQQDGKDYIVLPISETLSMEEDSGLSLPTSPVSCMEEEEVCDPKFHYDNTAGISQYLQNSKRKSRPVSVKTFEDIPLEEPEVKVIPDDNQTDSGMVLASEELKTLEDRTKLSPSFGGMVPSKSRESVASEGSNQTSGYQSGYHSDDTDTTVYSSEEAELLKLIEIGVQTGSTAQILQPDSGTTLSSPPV
T4 sequence (P00533 25-1210, species assumed): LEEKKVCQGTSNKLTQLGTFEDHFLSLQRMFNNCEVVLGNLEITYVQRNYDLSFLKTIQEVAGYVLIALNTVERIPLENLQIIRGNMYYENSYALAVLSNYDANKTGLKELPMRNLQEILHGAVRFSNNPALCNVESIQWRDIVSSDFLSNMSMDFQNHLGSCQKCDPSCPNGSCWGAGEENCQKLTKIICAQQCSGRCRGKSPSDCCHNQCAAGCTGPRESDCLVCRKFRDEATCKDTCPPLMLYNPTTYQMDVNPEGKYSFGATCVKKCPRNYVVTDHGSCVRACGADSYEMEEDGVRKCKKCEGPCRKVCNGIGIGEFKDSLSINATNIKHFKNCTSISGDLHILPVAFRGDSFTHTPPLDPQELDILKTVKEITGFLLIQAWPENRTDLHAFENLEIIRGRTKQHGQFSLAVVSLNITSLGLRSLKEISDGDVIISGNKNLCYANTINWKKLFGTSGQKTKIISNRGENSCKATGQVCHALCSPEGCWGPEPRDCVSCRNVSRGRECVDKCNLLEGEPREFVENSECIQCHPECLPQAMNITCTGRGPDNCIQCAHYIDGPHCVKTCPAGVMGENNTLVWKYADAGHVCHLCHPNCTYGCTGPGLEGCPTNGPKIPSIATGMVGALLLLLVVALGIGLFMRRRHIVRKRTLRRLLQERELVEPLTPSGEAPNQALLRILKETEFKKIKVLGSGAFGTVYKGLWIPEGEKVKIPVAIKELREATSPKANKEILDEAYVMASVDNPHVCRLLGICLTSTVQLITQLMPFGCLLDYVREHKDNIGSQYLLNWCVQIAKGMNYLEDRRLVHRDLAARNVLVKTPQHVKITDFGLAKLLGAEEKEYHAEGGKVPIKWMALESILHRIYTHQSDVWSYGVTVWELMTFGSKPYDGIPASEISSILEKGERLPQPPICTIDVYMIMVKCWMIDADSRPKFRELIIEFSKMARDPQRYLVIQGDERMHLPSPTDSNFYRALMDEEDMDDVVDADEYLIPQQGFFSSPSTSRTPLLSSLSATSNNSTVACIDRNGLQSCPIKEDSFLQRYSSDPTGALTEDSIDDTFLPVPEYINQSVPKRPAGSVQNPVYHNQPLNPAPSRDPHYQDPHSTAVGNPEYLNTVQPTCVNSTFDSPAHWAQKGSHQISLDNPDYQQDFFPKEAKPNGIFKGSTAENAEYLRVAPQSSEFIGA
T7 sequence (P08581 25-1390): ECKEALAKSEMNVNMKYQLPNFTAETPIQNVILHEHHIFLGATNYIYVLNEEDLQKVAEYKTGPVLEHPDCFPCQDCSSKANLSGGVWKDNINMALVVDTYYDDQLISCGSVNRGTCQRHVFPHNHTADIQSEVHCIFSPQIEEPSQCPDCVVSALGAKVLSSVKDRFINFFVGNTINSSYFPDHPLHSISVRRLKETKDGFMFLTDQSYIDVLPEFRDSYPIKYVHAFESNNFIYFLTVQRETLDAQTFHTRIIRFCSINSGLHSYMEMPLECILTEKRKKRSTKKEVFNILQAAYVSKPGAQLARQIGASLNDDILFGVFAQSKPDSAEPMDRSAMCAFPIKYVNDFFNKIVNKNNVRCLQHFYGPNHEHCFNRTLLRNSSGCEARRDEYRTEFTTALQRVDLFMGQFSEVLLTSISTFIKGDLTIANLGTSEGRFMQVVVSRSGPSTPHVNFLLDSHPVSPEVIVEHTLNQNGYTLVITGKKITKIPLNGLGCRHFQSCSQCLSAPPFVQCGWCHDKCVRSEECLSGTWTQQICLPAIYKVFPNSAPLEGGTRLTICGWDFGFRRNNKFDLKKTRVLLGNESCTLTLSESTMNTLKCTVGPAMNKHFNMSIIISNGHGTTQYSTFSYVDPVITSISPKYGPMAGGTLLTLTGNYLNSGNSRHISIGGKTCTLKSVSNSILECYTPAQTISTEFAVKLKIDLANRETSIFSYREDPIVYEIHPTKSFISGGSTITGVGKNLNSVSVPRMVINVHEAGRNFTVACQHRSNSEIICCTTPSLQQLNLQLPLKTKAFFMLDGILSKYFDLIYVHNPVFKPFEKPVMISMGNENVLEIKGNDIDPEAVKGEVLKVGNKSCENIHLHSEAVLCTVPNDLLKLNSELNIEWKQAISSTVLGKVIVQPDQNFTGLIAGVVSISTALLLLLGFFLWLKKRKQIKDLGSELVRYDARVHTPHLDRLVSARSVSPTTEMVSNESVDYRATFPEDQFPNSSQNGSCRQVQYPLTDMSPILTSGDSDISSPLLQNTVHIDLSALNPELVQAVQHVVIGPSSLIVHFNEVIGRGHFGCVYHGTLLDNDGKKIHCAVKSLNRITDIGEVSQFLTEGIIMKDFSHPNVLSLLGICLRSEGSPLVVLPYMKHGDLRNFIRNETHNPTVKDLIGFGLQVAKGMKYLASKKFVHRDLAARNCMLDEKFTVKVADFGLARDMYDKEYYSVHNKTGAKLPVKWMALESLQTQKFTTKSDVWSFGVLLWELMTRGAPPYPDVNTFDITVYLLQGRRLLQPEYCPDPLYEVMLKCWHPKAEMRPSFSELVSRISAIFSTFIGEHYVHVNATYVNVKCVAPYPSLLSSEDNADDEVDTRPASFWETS
T1 sequence (P06239 whole entry, species assumed, the tested form may be a part): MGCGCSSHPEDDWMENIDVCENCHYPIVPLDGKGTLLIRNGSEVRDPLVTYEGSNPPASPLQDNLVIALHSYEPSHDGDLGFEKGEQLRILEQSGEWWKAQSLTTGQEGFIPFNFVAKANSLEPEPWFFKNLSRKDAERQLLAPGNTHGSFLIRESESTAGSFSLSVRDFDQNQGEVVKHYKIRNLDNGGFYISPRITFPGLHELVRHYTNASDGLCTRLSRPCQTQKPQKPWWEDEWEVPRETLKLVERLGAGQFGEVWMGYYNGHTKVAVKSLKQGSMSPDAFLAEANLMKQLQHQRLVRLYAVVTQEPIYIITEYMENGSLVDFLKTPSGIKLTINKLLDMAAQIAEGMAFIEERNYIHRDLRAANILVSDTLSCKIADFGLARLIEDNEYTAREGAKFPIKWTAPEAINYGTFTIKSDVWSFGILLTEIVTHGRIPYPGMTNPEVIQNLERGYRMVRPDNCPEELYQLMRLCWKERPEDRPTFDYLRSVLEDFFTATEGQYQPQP

SMILES | IC50 (Lck) | IC50 (Zap-70) | IC50 (Itk) | IC50 (EGFR) | IC50 (Kdr) | IC50 (Tek) | IC50 (c-Met) | IC50 (AKT) | IC50 (Lck; Table 3) | IC50 (Zap-70; Table 3) | IC50 (Itk; Table 3) | IC50 (Kdr; Table 3)
O=c1[nH]c2ccccc2n1-c1ncnc(Nc2ccc(Br)c(Cl)c2)n1 [Compound 483] | 5.75 to 8.38 µM | 0.958 to 5.75 µM | > 10.8 µM | 0.958 to 5.75 µM | 0.958 to 5.75 µM | 0.958 to 5.75 µM | > 10.8 µM | > 10.8 µM | – | – | – | –
COc1cc(Nc2ncnc(Nc3nc(-c4ccccc4)cs3)n2)cc(OC)c1OC [Compound 444] | – | – | – | > 10.3 µM | – | > 10.3 µM | > 10.3 µM | > 10.3 µM | > 10.3 µM | > 10.3 µM | > 10.3 µM | > 10.3 µM
COc1cc(Nc2ncnc(-n3c(NCc4ccc(Br)cc4)nc4ccccc43)n2)cc(OC)c1OC [Compound 940] | 6.22 to 8 µM | > 8 µM | > 8 µM | > 8 µM | < 0.711 µM | > 8 µM | > 8 µM | > 8 µM | – | – | – | –
Nc1ncnc(-n2c(N)nc3ccccc32)n1 [Compound 646] | > 19.8 µM | > 19.8 µM | 10.6 to 15.4 µM | > 19.8 µM | 1.76 to 10.6 µM | > 19.8 µM | > 19.8 µM | 1.76 to 10.6 µM | – | – | – | –
Nc1nc2ccccc2n1-c1ncnc(Nc2ccc(Cl)c(Cl)c2)n1 [Compound 528] | 1.07 to 6.45 µM | 1.07 to 6.45 µM | 1.07 to 6.45 µM | 1.07 to 6.45 µM | 1.07 to 6.45 µM | 1.07 to 6.45 µM | 1.07 to 6.45 µM | 1.07 to 6.45 µM | – | – | – | –
COc1cc(Nc2ncnc(N)n2)cc(OC)c1OC [Compound 1024, N-(3,4,5-trimethoxy-phenyl)-[1,3,5]triazine-2,4-diamine] | – | – | – | > 16.2 µM | – | > 16.2 µM | > 16.2 µM | – | > 16.2 µM | > 16.2 µM | > 16.2 µM | > 16.2 µM
Nc1ncnc(Nc2ccc(C3CCCCC3)cc2)n1 [Compound 1021] | – | – | – | > 16.7 µM | – | > 16.7 µM | > 16.7 µM | – | > 16.7 µM | > 16.7 µM | > 16.7 µM | > 16.7 µM
COc1cc(Nc2ncnc(-c3cccnc3NCCN3CCCCC3)n2)cc(OC)c1OC [Compound 1079] | > 9.67 µM | > 9.67 µM | > 9.67 µM | > 9.67 µM | > 9.67 µM | – | > 9.67 µM | > 9.67 µM | – | – | – | –
CC(C)(C)c1cc(Nc2ncnc(Nc3ccc(C(N)=O)cc3)n2)[nH]n1 [Compound 502] | 1.14 to 6.81 µM | > 12.8 µM | 1.14 to 6.81 µM | 1.14 to 6.81 µM | 1.14 to 6.81 µM | – | 1.14 to 6.81 µM | 1.14 to 6.81 µM | – | – | – | –
COC(=O)n1c(=O)n(-c2ncnc(Nc3cc(OC)c(OC)c(OC)c3)n2)c2ccccc21 [Compound 1032] | > 9.95 µM | > 9.95 µM | > 9.95 µM | > 9.95 µM | 0.884 to 5.3 µM | – | > 9.95 µM | > 9.95 µM | – | – | – | –
N#Cc1cccc(Nc2ncnc(-n3c(=O)[nH]c4ccccc43)n2)c1 [Compound 486] | 1.21 to 7.29 µM | > 13.7 µM | > 13.7 µM | > 13.7 µM | 1.21 to 7.29 µM | – | > 13.7 µM | > 13.7 µM | – | – | – | –
COc1cc(Nc2ncnc(-n3c(N)nc4ccccc43)n2)cc(OC)c1 [Compound 477] | 1.1 to 6.6 µM | > 12.4 µM | 1.1 to 6.6 µM | > 12.4 µM | < 1.1 µM | – | > 12.4 µM | > 12.4 µM | – | – | – | –
NS(=O)(=O)c1ccc(CNc2ncnc(-n3c(=O)[nH]c4ccccc43)n2)cc1 [Compound 456] | – | – | – | > 11.3 µM | – | – | > 11.3 µM | > 11.3 µM | > 11.3 µM | > 11.3 µM | > 11.3 µM | > 11.3 µM
COc1cc(Nc2ncnc(Nc3nc(C)cs3)n2)cc(OC)c1OC [Compound 468] | – | – | – | 1.07 to 6.41 µM | – | – | > 12 µM | > 12 µM | > 12 µM | > 12 µM | > 12 µM | 1.07 to 6.41 µM
NS(=O)(=O)c1ccc(Nc2ncnc(-n3c(=O)[nH]c4ccccc43)n2)cc1 [Compound 451] | – | – | – | > 11.7 µM | – | – | > 11.7 µM | 9.13 to 11.7 µM | 1.04 to 6.26 µM | > 11.7 µM | > 11.7 µM | 1.04 to 6.26 µM
CC(C)(C)c1cc(Nc2ncnc(Cl)n2)[nH]n1 [Compound 975] | > 17.8 µM | > 17.8 µM | > 17.8 µM | > 17.8 µM | > 17.8 µM | – | > 17.8 µM | > 17.8 µM | – | – | – | –
CCN(CC)CCCNc1ccc(-c2ncnc(Nc3cc(OC)c(OC)c(OC)c3)n2)cn1 [Compound 448] | – | – | – | > 9.62 µM | – | – | > 9.62 µM | > 9.62 µM | 0.855 to 5.13 µM | > 9.62 µM | > 9.62 µM | 5.13 to 7.49 µM
COc1ccc(Nc2ncnc(-n3c(=O)[nH]c4ccccc43)n2)cn1 [Compound 489] | > 13.4 µM | > 13.4 µM | > 13.4 µM | > 13.4 µM | > 13.4 µM | – | > 13.4 µM | > 13.4 µM | – | – | – | –
N#Cc1ccc(Nc2ncnc(-n3c(=O)[nH]c4ccccc43)n2)cc1 [Compound 485] | > 13.7 µM | > 13.7 µM | > 13.7 µM | > 13.7 µM | 1.21 to 7.29 µM | – | > 13.7 µM | > 13.7 µM | – | – | – | –
COc1cc(Nc2ncnc(-n3c(=O)oc4ccccc43)n2)cc(OC)c1OC [Compound 423] | – | – | – | 1.01 to 6.07 µM | – | – | > 11.4 µM | 6.07 to 8.85 µM | 1.01 to 6.07 µM | > 11.4 µM | > 11.4 µM | 1.01 to 6.07 µM
O=c1[nH]c2ccccc2n1-c1ncnc(Nc2ccccc2)n1 [Compound 482] | > 14.8 µM | > 14.8 µM | > 14.8 µM | > 14.8 µM | < 1.31 µM | – | > 14.8 µM | > 14.8 µM | – | – | – | –
O=c1[nH]c2ccccc2n1-c1ncnc(Nc2ccc3ccccc3c2)n1 [Compound 684] | > 12.7 µM | > 12.7 µM | > 12.7 µM | > 12.7 µM | 6.77 to 9.88 µM | – | > 12.7 µM | > 12.7 µM | – | – | – | –
